Experimental data: US20220168430A1, “THERAPEUTIC METHODS FOR TREATING HEPATITIS B” (priority 2019, published 2022)
Where two headings read alike, the source gives them in different places.

Legend:
[1] = test system: HBV DNA; assay: Serum HBV DNA in pHBV1.3 hydrodynamic injection mouse model of HBV (Example 12); type: in vivo, NOD.CB17-Prkdc scid/J mice; HBV genotype D, serotype ayw; conditions: once daily oral from Day 0: RNA destabilizer 10 mg/kg, encapsidation inhibitor 100 mg/kg, nucleos(t)ide analog 0.4 mg/kg, group mean ± SEM, n=7 or 8, from negative control
Protocol: (§1) On Day −7, 10 micrograms of the plasmid pHBV1.3 (constructed based on details provided in Guidotti, L., et al., Journal of Virology, 1995, 69(10): 6158-6169) was administered to NOD.CB 17-Prkdc^scid/J mice via hydrodynamic injection (HDI; rapid 1.6 mL injection into the tail vein). […] As readouts of the anti-HBV effect of the treatments, serum HBV DNA and serum HBsAg were assessed. Serum HBV DNA concentration in mice was measured using a quantitative PCR assay following total DNA extraction using previously published primers and probe sequences (Tanaka, Y., et al., Journal of Medical Virology, 2004, 72: 223-229). Serum HBsAg concentration in mice was measured using a commercially available ELISA kit (HBsAg EIA 3.0 480 Test Kit, Bio-Rad).
(§2) Animals were treated with RNA destabilizer as follows: Starting on Day 0, a 10 mg/kg dosage of RNA destabilizer was administered orally to animals on a once-daily frequency for a total of seven doses across the duration of the study. Animals were treated with encapsidation inhibitor as follows: Starting on Day 0, a 100 mg/kg dosage of encapsidation inhibitor was administered orally to animals on a once-daily frequency for a total of seven doses across the duration of the study. Animals were treated with nucleos(t)ide analog as follows: Starting on Day 0, a 0.4 mg/kg dosage of nucleos(t)ide analog was administered orally to animals on a once-daily frequency for a total of seven doses across the duration of the study. The RNA destabilizer, the encapsidation inhibitor, and nucleos(t)ide analog were each dissolved in the same co-solvent formulation for administration and negative control animals were administered the co-solvent formulation alone. To calculate treatment-specific effects, the treated groups are compared against negative control (vehicle treated) animals.
(§3) The effect of these treatments was determined by collecting blood on Days −1 (prior to study's treatment phase), 4, and 7 and analyzing it for serum HBV DNA and HBsAg content.

[2] = test system: HBsAg; assay: Serum HBsAg in pHBV1.3 hydrodynamic injection mouse model of HBV (Example 12); type: in vivo, NOD.CB17-Prkdc scid/J mice; HBV genotype D, serotype ayw; conditions: for Serum HBsAg log reduction: once daily oral from Day 0: RNA destabilizer 10 mg/kg, encapsidation inhibitor 100 mg/kg, nucleos(t)ide analog 0.4 mg/kg, group mean ± SEM, n=7 or 8, from negative control
Protocol: as §1, §2, §3

[3] = test system: HBV DNA; type: in vivo, C57BL/6 mice; HBV serotype Ayw, genotype D; conditions: group mean ± SEM, n=6
Protocol: (§4) Prior to treatment start, 1×10^11 viral genomes of an adeno-associated virus (AAV) vector carrying a 1.3-fold overlength copy of an HBV genome (serotype Ayw, genotype D) was administered to C57BL/6 mice via intravenous injection. Introduction of this viral vector results in the expression of HBV DNA and HBV surface antigen (HBsAg) amongst other HBV products. Serum HBV DNA levels in mice was measured using a quantitative polymerase chain reaction (QPCR) assay, HBsAg in serum and liver of mice was measured using an enzyme-linked immunosorbent assay (ELISA), and anti-HBsAg antibodies were measured using ELISA.
(§5) Treatment effects on serum HBV DNA were determined by collecting a small amount of blood on Days 0 (pre-treatment) and 14, as well as from terminal blood collections at Day 42. Treatment effects on HBsAg in serum and liver were determined from terminal sample collections at Day 42.
(§6) Any individual animal samples measured to fall below assay lower limit of quantitation (LLOQ) were reported as the LLOQ value.

[4] = test system: HBsAg; assay: Liver HBsAg by ELISA in AAV-HBV mouse model (Example 18); type: in vivo, C57BL/6 mice; HBV serotype Ayw, genotype D; conditions: Study Day 42; siRNA 3 mg/kg s.c. Days 0 and 28, encapsidation inhibitor 100 mg/kg and/or TDF 1 mg/kg oral daily Days 0-41; group mean ± SEM, n=6
Protocol: as §4, §5, §6

[5] = test system: HBV genome; assay: IC 50 of HBV siRNA duplexes (Table A); design: species or system Hepatitis B virus; conditions: siRNA duplex

Compound | Serum HBV DNA log reduction ([1]; Day 4) [log] | Serum HBV DNA log reduction ([1]; Day 7) [log] | Serum HBsAg log reduction ([2]; Day 4) [log] | Serum HBsAg log reduction ([2]; Day 7) [log] | effect on viral protein production (serum HBsAg biomarker) ([2]; mouse, once-daily oral, seven doses) | Serum HBV DNA ([3]; Day 0 (pre-treatment)) [log10 copies/microliter] | Serum HBV DNA ([3]; Day 14, siRNA 3 mg/kg s.c. Days 0 and 28, encapsidation inhibitor 100 mg/kg and/or TDF 1 mg/kg oral daily) [log10 copies/microliter] | Serum HBV DNA ([3]; Day 42, siRNA 3 mg/kg s.c. Days 0 and 28, encapsidation inhibitor 100 mg/kg and/or TDF 1 mg/kg oral daily Days 0-41) [log10 copies/microliter] | Liver HBsAg [4] [log10 IU/mg liver protein] | IC50 [5] [nM]
COCCCOc1cc2c(nc1OC)-c1cc(=O)c(C(=O)O)cn1[C@H](C(C)C)C2 [RNA destabilizer] | 0.48 ± 0.11 | 0.48 ± 0.10 | 0.75 ± 0.03 | 0.86 ± 0.04 | reductive effect on viral protein production |  |  |  |  | 
Cn1cnc(COC(=O)N[C@H]2CCc3c(C(=O)Nc4ccc(F)c(Cl)c4)ccc(F)c32)n1 [Encapsidation Inhibitor] | 0.94 ± 0.07 | 0.86 ± 0.12 | −0.12 ± 0.03 | 0.07 ± 0.04 |  | 4.45 ± 0.13 | 3.89 ± 0.07 | 4.49 ± 0.07 | 2.03 ± 0.03 | 
6m: "double stranded siRNA molecules selected from the group consisting of 1m, 2m, 3m ... 15m" (sense CUGGCUCAGUUUACUAGUGUU; antisense UUGACCGAGUCAAAUGAUCAC; chemistry not fully specified; one strand is listed 3' to 5') [Compound 6m] |  |  |  |  |  |  |  |  |  | 0.05
5m: "double stranded siRNA molecules selected from the group consisting of 1m, 2m, 3m ... 15m" (sense CCGUGUGCACUUCGCUUCAUU; antisense UUGGCACACGUGAAGCGAAGU; chemistry not fully specified) [Compound 5m] |  |  |  |  |  |  |  |  |  | 0.06
